Test results from PubChem BioAssay AID2060617 (Molecular Pharmacology Branch, DTP, NCI, 2025).
Values joined by “and” are separate entries in the source; they are usually repeats but may differ in a detail not shown here. Identical values can stand only once.

Tested on: 485368-065-R4-J2-PDC spheroids with HUVEC/MSC, viability
Assay: Anticancer human tumor 485368-065-R4-J2-PDC patient-derived pancreatic carcinoma cell line growth inhibition [CLK]
Details: for viability, T/C: stronger effect = lower value
How it was run: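 Multi-cell-type spheroids combined patient-derived tumor cells with HUVEC endothelial cells and human mesenchymal stem cells. Paired agents were dosed in half-log steps down from about clinical Cmax, or from 10 microM where Cmax was unknown.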

[1] = curve of first compound, second compound 0.0316 µM
[2] = curve of first compound, second compound 0.1 µM
[3] = curve of first compound, second compound 0.316 µM
[4] = curve of first compound, second compound 1 µM
[5] = curve of first compound, second compound 3.16 µM
[6] = curve of first compound, second compound 10 µM
[7] = second compound 0.0316 µM, first compound 0.0316 µM
[8] = second compound 0.0316 µM, first compound 0.1 µM
[9] = second compound 0.0316 µM, first compound 0.316 µM
[10] = second compound 0.0316 µM, first compound 1 µM
[11] = second compound 0.0316 µM, first compound 3.16 µM
[12] = second compound 0.0316 µM, first compound 10 µM
[13] = second compound 0.1 µM, first compound 0.0316 µM
[14] = second compound 0.1 µM, first compound 0.1 µM
[15] = second compound 0.1 µM, first compound 0.316 µM
[16] = second compound 0.1 µM, first compound 1 µM
[17] = second compound 0.1 µM, first compound 3.16 µM
[18] = second compound 0.1 µM, first compound 10 µM
[19] = second compound 0.316 µM, first compound 0.0316 µM
[20] = second compound 0.316 µM, first compound 0.1 µM
[21] = second compound 0.316 µM, first compound 0.316 µM
[22] = second compound 0.316 µM, first compound 1 µM
[23] = second compound 0.316 µM, first compound 3.16 µM
[24] = second compound 0.316 µM, first compound 10 µM
[25] = second compound 1 µM, first compound 0.0316 µM
[26] = second compound 1 µM, first compound 0.1 µM
[27] = second compound 1 µM, first compound 0.316 µM
[28] = second compound 1 µM, first compound 1 µM
[29] = second compound 1 µM, first compound 3.16 µM
[30] = second compound 1 µM, first compound 10 µM
[31] = second compound 3.16 µM, first compound 0.0316 µM
[32] = second compound 3.16 µM, first compound 0.1 µM
[33] = second compound 3.16 µM, first compound 0.316 µM
[34] = second compound 3.16 µM, first compound 1 µM
[35] = second compound 3.16 µM, first compound 3.16 µM
[36] = second compound 3.16 µM, first compound 10 µM
[37] = second compound 10 µM, first compound 0.0316 µM
[38] = second compound 10 µM, first compound 0.1 µM
[39] = second compound 10 µM, first compound 0.316 µM
[40] = second compound 10 µM, first compound 1 µM
[41] = second compound 10 µM, first compound 3.16 µM
[42] = second compound 10 µM, first compound 10 µM
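Also: spheroids exposed to compounds for seven days.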
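For viability, T/C in this document: 100% = DMSO vehicle control wells.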

For `CC1(C)CCC(CN2CCN(c3ccc(C(=O)NS(=O)(=O)c4ccc(NCC5CCOCC5)c([N+](=O)[O-])c4)c(Oc4cnc5[nH]ccc5c4)c3)CC2)=C(c2ccc(Cl)cc2)C1` + CN1CCN(c2cc(C(=O)Nc3cc4cc(-c5cnn(C)c5)ccc4cn3)ccn2)CC1, the IC50 [1] was 8030 nM, the IC50 [2] was 7820 nM and the IC50 [3] was 6550 nM. The IC50 [4] was < 31.6 nM, the IC50 [5] was < 31.6 nM and the IC50 [6] was < 31.6 nM. The viability, T/C [7] was 102%, the viability, T/C [8] was 112% and the viability, T/C [9] was 114%. The viability, T/C [10] was 111%, the viability, T/C [11] was 122% and the viability, T/C [12] was 35.4%. The viability, T/C [13] was 113%, the viability, T/C [14] was 112% and the viability, T/C [15] was 112%. It also gave a viability, T/C [16] of 113%, a viability, T/C [17] of 121% and a viability, T/C [18] of 32.4%. It also gave a viability, T/C [19] of 86.8%, a viability, T/C [20] of 97.2% and a viability, T/C [21] of 94.6%. The viability, T/C [22] was 95.3%, the viability, T/C [23] was 104% and the viability, T/C [24] was 23.5%. It also gave a viability, T/C [25] of 2.85%, a viability, T/C [26] of 0.83% and a viability, T/C [27] of 2.34%. For the same compound, the viability, T/C [28] was 1.27%, the viability, T/C [29] was 1.79% and the viability, T/C [30] was 3.68%. It also gave a viability, T/C [31] of 2.29%, a viability, T/C [32] of 1.33% and a viability, T/C [33] of 2.68%. For the same compound, the viability, T/C [34] was 2.94%, the viability, T/C [35] was 3.79% and the viability, T/C [36] was 3.42%. For the same compound, the viability, T/C [37] was 1.77%, the viability, T/C [38] was 2.36% and the viability, T/C [39] was 4.56%. The viability, T/C [40] was 5.88%, the viability, T/C [41] was 3.51% and the viability, T/C [42] was 1.68%.
`Nc1ccn(C2OC(CO)C(O)C2(F)F)c(=O)n1` (stereo not drawn) + CNC(=O)c1ccc(Nc2nc(OC3CCCC3)c3c(-c4ccc5nc(C)oc5c4)c[nH]c3n2)c(OC)c1 was tested, and the IC50 [1] was 73.2 nM, the IC50 [2] was 65.3 nM and the IC50 [3] was 49.3 nM. The IC50 [4] was 43.2 nM, the IC50 [5] was 34.3 nM and the IC50 [6] was < 31.6 nM. The viability, T/C [7] was 66.8%, the viability, T/C [8] was 45% and the viability, T/C [9] was 32.3%. The viability, T/C [10] was 35.2%, the viability, T/C [11] was 33.5% and the viability, T/C [12] was 30.5%. It also gave a viability, T/C [13] of 62.8%, a viability, T/C [14] of 43.4% and a viability, T/C [15] of 31.1%. For the same compound, the viability, T/C [16] was 33.4%, the viability, T/C [17] was 32.4% and the viability, T/C [18] was 26.6%. The viability, T/C [19] was 59.8%, the viability, T/C [20] was 34% and the viability, T/C [21] was 27.5%. The viability, T/C [22] was 24.8%, the viability, T/C [23] was 25.1% and the viability, T/C [24] was 21.8%. The viability, T/C [25] was 58%, the viability, T/C [26] was 28.2% and the viability, T/C [27] was 20.7%. The viability, T/C [28] was 17.2%, the viability, T/C [29] was 16.1% and the viability, T/C [30] was 13.9%. It also gave a viability, T/C [31] of 51.8%, a viability, T/C [32] of 28.1% and a viability, T/C [33] of 18.7%. The viability, T/C [34] was 15.4%, the viability, T/C [35] was 14.5% and the viability, T/C [36] was 13.2%. It also gave a viability, T/C [37] of 50%, a viability, T/C [38] of 24.5% and a viability, T/C [39] of 18.6%. For the same compound, the viability, T/C [40] was 16%, the viability, T/C [41] was 13.3% and the viability, T/C [42] was 11.2%.
`CC(Nc1ccc2c(c1)OCCn1cc(N3C(=O)OCC3C(F)F)nc1-2)C(N)=O` (stereo not drawn) + CN1CCN(c2cc(C(=O)Nc3cc4cc(-c5cnn(C)c5)ccc4cn3)ccn2)CC1 was tested, and the IC50 [1] was > 10000 nM, the IC50 [2] was > 10000 nM and the IC50 [3] was 158 nM. The IC50 [4] was < 31.6 nM, the IC50 [5] was < 31.6 nM and the IC50 [6] was < 31.6 nM. For the same compound, the viability, T/C [7] was 92.4%, the viability, T/C [8] was 109% and the viability, T/C [9] was 103%. The viability, T/C [10] was 83.3%, the viability, T/C [11] was 78.8% and the viability, T/C [12] was 62.3%. It also gave a viability, T/C [13] of 98.7%, a viability, T/C [14] of 95.5% and a viability, T/C [15] of 93%. For the same compound, the viability, T/C [16] was 68.8%, the viability, T/C [17] was 58.6% and the viability, T/C [18] was 53.4%. For the same compound, the viability, T/C [19] was 68.9%, the viability, T/C [20] was 55.8% and the viability, T/C [21] was 41.9%. For the same compound, the viability, T/C [22] was 30.3%, the viability, T/C [23] was 27.2% and the viability, T/C [24] was 20.7%. It also gave a viability, T/C [25] of 1.25%, a viability, T/C [26] of 1.05% and a viability, T/C [27] of 0.92%. For the same compound, the viability, T/C [28] was 0.74%, the viability, T/C [29] was 1.65% and the viability, T/C [30] was 1.84%. For the same compound, the viability, T/C [31] was 2.26%, the viability, T/C [32] was 1.12% and the viability, T/C [33] was 3.5%. The viability, T/C [34] was 2.02%, the viability, T/C [35] was 2.42% and the viability, T/C [36] was 2.95%. It also gave a viability, T/C [37] of 1.54%, a viability, T/C [38] of 2.13% and a viability, T/C [39] of 2.05%. The viability, T/C [40] was 2.62%, the viability, T/C [41] was 2.43% and the viability, T/C [42] was 2.04%.
For `COc1ccc([C@@H](O)c2cc(-c3ncnc4cc(N5CCOCC5)ccc34)c(F)cc2Cl)nn1`, the viability, T/C (compound 0.0316 µM) was 97% and 105%, the viability, T/C (compound 0.1 µM) was 94.9% and 95.8% and the viability, T/C (compound 0.316 µM) was 103% and 96.8%. For the same compound, the viability, T/C (compound 1 µM) was 105% and 114%, the viability, T/C (compound 3.16 µM) was 104% and 102% and the viability, T/C (compound 10 µM) was 82.6% and 77.8%. The IC50 (curve of compound) was > 10000 nM.
